Test results: publication PMC7238232, “Acamprosate Is a Substrate of the Human Organic Anion Transporter (OAT) 1 without OAT3 Inhibitory Properties: Implications for Renal Acamprosate Secretion and Drug–Drug Interactions” (Pharmaceutics, 2020)
Where two headings read alike, the source gives them in different places. Marks after values point to notes of the source that are not given here.

Experiments:
TAUT = details: Caco-2 cells, preliminary data; cited from earlier work
[1] = cited from earlier work
OAT1 [2] = target: T1, OAT1 (Homo sapiens, UniProt Q4U2R8); assay: Acamprosate intracellular uptake and inhibition of uptake in HEK293-Flp-In OAT1 cells (LC/MS-MS); type: cell-based; parameters: expressed in transfected cells; host or cells: HEK293-Flp-In
T1 sequence (Q4U2R8 1-563): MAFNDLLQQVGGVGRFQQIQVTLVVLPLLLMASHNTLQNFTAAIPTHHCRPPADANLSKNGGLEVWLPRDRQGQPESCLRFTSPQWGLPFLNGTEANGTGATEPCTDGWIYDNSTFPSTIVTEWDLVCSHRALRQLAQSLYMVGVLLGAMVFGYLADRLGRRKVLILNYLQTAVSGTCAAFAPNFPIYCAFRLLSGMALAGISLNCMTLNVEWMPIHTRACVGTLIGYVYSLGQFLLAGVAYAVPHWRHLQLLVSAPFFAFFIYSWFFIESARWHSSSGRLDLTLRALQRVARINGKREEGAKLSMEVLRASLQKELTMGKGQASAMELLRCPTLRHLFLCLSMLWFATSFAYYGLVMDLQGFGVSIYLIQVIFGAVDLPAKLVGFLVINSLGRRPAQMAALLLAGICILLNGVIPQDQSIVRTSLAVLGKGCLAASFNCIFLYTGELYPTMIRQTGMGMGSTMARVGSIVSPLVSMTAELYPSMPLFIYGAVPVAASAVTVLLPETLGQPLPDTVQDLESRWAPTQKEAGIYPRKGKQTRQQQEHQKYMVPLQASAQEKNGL
From the text: The obtained intracellular amounts (pmol) were normalized to the assay time (min) and cell surface area (cm^2) or protein amount (mg protein) to obtain a term hereafter referred to as uptake rate. The uptake rate of acamprosate as a function of concentration was fitted to a Michaelis–Menten type equation which includes a saturable and a non-saturable uptake component, (1) V=Vmax · [S]/Km +[S]+P · [S] where V is the substrate uptake rate; Vmax is the maximal uptake rate; P is a constant related to non-saturable apparent uptake, i.e., factors such as passive diffusion, unspecific binding and residual compound present after washing steps, and [S] is the substrate concentration (µM). […] Assuming competitive interaction, equilibrium dissociation constants, Ki, were calculated from the IC50 value for each substrate/inhibitor pair, at substrate Km, using the Cheng–Prusoff equation [24].

B^0,+AT/rBAT = details: Caco-2 cells, preliminary data; cited from earlier work
HEK293-Flp-In mock cells = assay: CellTiter-Glo cell viability assay, mock cells; details: up to 3300 µM acamprosate; 3 h
[3] = Physicochemical properties; details: assay pH 7.4
HEK293-Flp-In OAT1 cells = assay: CellTiter-Glo cell viability assay, OAT1 transfected cells; details: up to 3300 µM acamprosate; 3 h
[4] = Clinical pharmacokinetics in humans (literature); details: for Cmax,u: acamprosate, calculated
OAT1 [5] = target: T1, OAT1; assay: Drug-drug interaction (DDI) index calculation, OAT1; details: for DDI Index, PAH: acamprosate
From the text: (§1) Input values for Cmax,u or C0,u calculated from clinical studies are listed in Appendix B, Table A1.

OAT3 = target: T2, OAT3 (Homo sapiens, UniProt Q8TCC7); assay: Drug-drug interaction (DDI) index calculation, OAT3; details: oral and intravenous administration of inhibitor
T2 sequence (Q8TCC7 1-542): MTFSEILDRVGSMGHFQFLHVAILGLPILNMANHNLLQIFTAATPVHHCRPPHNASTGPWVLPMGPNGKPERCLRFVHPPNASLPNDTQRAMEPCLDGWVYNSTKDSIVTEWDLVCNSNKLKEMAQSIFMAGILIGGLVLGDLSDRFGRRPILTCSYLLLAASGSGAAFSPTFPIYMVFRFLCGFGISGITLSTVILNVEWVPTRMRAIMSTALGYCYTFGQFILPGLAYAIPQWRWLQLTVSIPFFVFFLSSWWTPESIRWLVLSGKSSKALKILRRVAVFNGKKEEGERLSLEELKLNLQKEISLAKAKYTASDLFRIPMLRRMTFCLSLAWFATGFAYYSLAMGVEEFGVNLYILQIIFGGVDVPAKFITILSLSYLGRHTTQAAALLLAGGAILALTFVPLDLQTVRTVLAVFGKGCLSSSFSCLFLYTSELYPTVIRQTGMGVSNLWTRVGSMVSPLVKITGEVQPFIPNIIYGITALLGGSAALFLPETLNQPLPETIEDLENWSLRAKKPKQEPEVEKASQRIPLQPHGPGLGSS
From the text: as §1

OATP2B1 = details: Caco-2 cells, preliminary data; cited from earlier work
PEPT1 = details: Caco-2 cells, preliminary data; cited from earlier work
[6] = 200 µM acamprosate, 10 min, Lab. 1

CC(=O)NCCCS(=O)(=O)O [acamprosate, acetylhomotaurinate]
inhibition of substrate transport via TAUT (TAUT): did not inhibit
Cmax ([1]; acamprosate, IV bolus, 333 mg): 153 ± 38 µM
Cmax ([1]; acamprosate, IV bolus, 666 mg): 214 ± 10 µM
Cmax ([1]; acamprosate, IV bolus, 710 mg): 230 ± 64 µM
Cmax ([1]; acamprosate, IV bolus, 1420 mg): 486 ± 106 µM
Cmax ([1]; acamprosate, IV bolus, 2130 mg): 768 ± 149 µM
fu, fraction unbound in plasma ([1]; acamprosate, all doses and routes of Table A1): 1 [5]
Cmax ([1]; acamprosate, oral solution, 333 mg): 1.8 ± 0.8 µM
Cmax ([1]; acamprosate, oral solution, 666 mg): 4.3 ± 1.4 µM
Cmax ([1]; acamprosate, oral solution, 1332 mg): 5 ± 1.7 µM
Cmax ([1]; acamprosate, oral solution, 2664 mg): 8.6 ± 4.1 µM
Cmax ([1]; acamprosate, oral tablet, 666 mg): 1.4 ± 1.1 µM
Cmax ([1]; acamprosate, oral tablet, 1332 mg): 1.5 ± 0.1 µM
plasma levels ([1]; administered orally, humans): 1 to 9 µM
metabolism in humans [1]: not metabolized
share of the eliminated dose accounted for by renal clearance (CLR) [1]: > 95%
renal clearance (CLR) of unbound acamprosate ([1]; healthy adults): 13.4 to 23.4 L/h
fu (plasma protein binding) ([1]; humans): 1
initial unbound plasma concentration (C0,u) ([1]; intravenous (bolus), doses of 333–2130 mg): 154 to 768 µM
unbound steady-state plasma concentration (Cmax,u) ([1]; oral, doses of 333–2130 mg): 2 to 5 µM
acamprosate uptake in OAT1 expressing cells compared to mock and OAT3 expressing cells (OAT1 [2]; [6]): statistically significantly higher
acamprosate uptake rate in OAT1 cells relative to mock-transfected cells (OAT1 [2]; [6]): approximately 20 fold
P, non-saturable apparent uptake constant (OAT1 [2]; HEK293-Flp-In OAT1 cells, Lab. 1): 0.35 ± 0.04 µL∙mg protein^−1∙min^−1
uptake by OAT1 as compared to OAT3 (OAT1 [2]; criterion of relatively OAT1-specific substrate): at least 5 ×
inhibition of substrate transport via B^0,+AT/rBAT (B^0,+AT/rBAT): did not inhibit
decrease in cell viability (HEK293-Flp-In mock cells): ≤ 10%
ionized at the assay pH [3]: > 99%
decrease in cell viability (HEK293-Flp-In OAT1 cells): ≤ 10%
Cmax,u ([4]; IV bolus, 333 mg): 153 ± 38 µM
Cmax,u ([4]; IV bolus, 666 mg): 214 ± 10 µM
Cmax,u ([4]; IV bolus, 710 mg): 230 ± 64 µM
Cmax,u ([4]; IV bolus, 1420 mg): 486 ± 106 µM
Cmax,u ([4]; IV bolus, 2130 mg): 768 ± 149 µM
Cmax,u ([4]; oral solution, 333 mg): 1.8 ± 0.8 µM
Cmax,u ([4]; oral solution, 666 mg): 4.3 ± 1.4 µM
Cmax,u ([4]; oral solution, 1332 mg): 5.0 ± 1.7 µM
Cmax,u ([4]; oral solution, 2664 mg): 8.6 ± 4.1 µM
Cmax,u ([4]; oral tablet, 666 mg): 1.4 ± 1.1 µM
Cmax,u ([4]; oral tablet, 1332 mg): 1.5 ± 0.1 µM
contribution of active secretion to total CLR ([4]; estimated from CLR and GFR·fu): more than 44%
DDI Index, PAH (OAT1 [5]; IV bolus, 333 mg): 0.12–0.53 *
DDI Index, PAH (OAT1 [5]; IV bolus, 666 mg): 0.17–0.75 *
DDI Index, PAH (OAT1 [5]; IV bolus, 710 mg): 0.19–0.80 *
DDI Index, PAH (OAT1 [5]; IV bolus, 1420 mg): 0.40–1.69 *
DDI Index, PAH (OAT1 [5]; IV bolus, 2130 mg): 0.62–2.68 *
DDI Index, PAH (OAT1 [5]; oral solution, 333 mg): 0.00–0.01
DDI Index, PAH (OAT1 [5]; oral solution, 666 mg): 0.00–0.01
DDI Index, PAH (OAT1 [5]; oral solution, 1332 mg): 0.00–0.02
DDI Index, PAH (OAT1 [5]; oral solution, 2664 mg): 0.01–0.03
DDI Index, PAH (OAT1 [5]; oral tablet, 666 mg): 0.00–0.00
DDI Index, PAH (OAT1 [5]; oral tablet, 1332 mg): 0.001–0.01
DDI index, substrate PAH (OAT1 [5]; oral administration of inhibitor, range over doses): 0.001–0.008
DDI index, substrate E3S (OAT3): <<0.02 ^a, b
inhibition of substrate transport via OATP2B1 (OATP2B1): did not inhibit
inhibition of substrate transport via PEPT1 (PEPT1): did not inhibit
